Measured values published in publication PMC9382192, “Combined treatment with epigenetic agents enhances anti-tumor activity of MAGE-D4 peptide-specific T cells by upregulating the MAGE-D4 expression in glioma” (Frontiers in Oncology, 2022).

What was measured:
Assay type in all cases: cell-based, human
[1] = test system: IFN-γ; assay: IFN-γ ELISA of DC/T-cell co-culture supernatant; settings: 72 h co-culture supernatant, compared to T cells alone
Description: Production of cytokines in the supernatants was determined using commercially available ELISA kits (Cloud-Clone Corporation, Wuhan, China) according to the protocol of the manufacturer. Approximately 50 μl of supernatant and different concentration standards were added and mixed with 100 μl of horseradish peroxidase (HRP) labeled detection antibody against a 96-well plate, respectively, except for the blank control. After incubation at 37°C for 60 min, we washed the plate five times. Add substrate A and substrate B 50 μl respectively, incubate for 15min in a 37°C incubator in dark. Then, 50 μl of stop solution was added and a 450 nm absorbance value (OD value) was measured within 15 min. The regression equation of the standard curve is calculated according to the concentration of the standard substance and the OD value, and the corresponding sample concentration is calculated on the basis of the regression equation.

[2] = test system: U251; assay: Granzyme A and perforin ELISA, T cells with U251; settings: T cells incubated with DAC + TSA-treated U251, E:T 50:1, 4 h
Description: The human glioma cell lines (U87-MG and U251) were obtained from the Cell Bank of Type Culture Collection of the Chinese Academy of Science (Shanghai, China). […] A3656), valproic acid (VPA, CAS No. 99-66-1), and trichostatin A (TSA, CAS No. 58880-19-6) were purchased from Sigma-Aldrich Corporation (St. Louis, MO, USA). DAC and TSA were dissolved in DMSO to a concentration of 10 mM. Aliquots were stored at −80°C and diluted with media before being used. […] Four hours later, suspended cells were collected for CD107a flow cytometry, meanwhile, the supernatant was collected and analyzed with granzyme A and perforin ELISA kit (Cloud-Clone Corporation, Wuhan, China) at 450 nm, and the LDH kit (Promega, USA) at 490 nm. The percentage of specific lysis was calculated using the following formula: [(experimental release − spontaneous release)/(maximum release − spontaneous release)] × 100. […] Then, the cytotoxicity assay was measured and calculated as mentioned above.

[3] = test system: U251; assay: LDH cytotoxicity assay and HLA block, U251
Description: The human glioma cell lines (U87-MG and U251) were obtained from the Cell Bank of Type Culture Collection of the Chinese Academy of Science (Shanghai, China). Decitabine (DAC, CAS No. A3656), valproic acid (VPA, CAS No. 99-66-1), and trichostatin A (TSA, CAS No. 58880-19-6) were purchased from Sigma-Aldrich Corporation (St. Louis, MO, USA). DAC and TSA were dissolved in DMSO to a concentration of 10 mM. Aliquots were stored at −80°C and diluted with media before being used. Drug treatments were divided into seven groups: (1) DAC group: cells were cultured in medium on the presence of 1 μM DAC for 120 h; (2) VPA group: cells were grown in medium containing 1 mM VPA for 120 h; (3) TSA group: cells were cultured in medium supplemented with 1 μM TSA for 24 h; (4) D + V group: cells were cultured with 1 μM DAC and 1 mM VPA for 120 h; (5) D + T group: cells were cultured with 1 μM DAC for 120 h, followed by 1 μM TSA for 24 h; (6) Control group: cells were cultured with 0.09% DMSO, which is the highest concentration of DMSO used in this study in consideration of the potential toxicity of DMSO to living cells. Human recombinant interleukin (IL) IL-2, IL-4, and human recombinant granulocyte/macrophage colony-stimulating factor (GM-CSF) were purchased from R&D Systems.
The cytotoxic activity of MAGE-D4 peptide-specific CTLs to glioma cells was determined according to the instructions of the manufacturers by our published method ([31]). […] Four hours later, suspended cells were collected for CD107a flow cytometry, meanwhile, the supernatant was collected and analyzed with granzyme A and perforin ELISA kit (Cloud-Clone Corporation, Wuhan, China) at 450 nm, and the LDH kit (Promega, USA) at 490 nm. The percentage of specific lysis was calculated using the following formula: [(experimental release − spontaneous release)/(maximum release − spontaneous release)] × 100. […] Then, the cytotoxicity assay was measured and calculated as mentioned above.

## CLPPPNVIL [Peptide P8]
[1]
  IFN-γ secretion by T cells (ELISA): high levels of IFN-γ
[2]
  granzyme A and perforin secreted by T cells: the most granzyme A and perforin
[3]; DAC + TSA-treated U251, E:T 50:1, 4 h
  cytotoxicity of peptide-specific T cells (specific lysis, LDH): cytotoxicity on the DAC + TSA-treated U251 cells with statistical significance
[3]; target cells pre-incubated with HLA-ABC antibody 50 μg/ml, 37°C 40 min, versus groups without anti-HLA antibodies, Figure 6I
  killing efficiency after HLA I block: significantly decreased
